Laboratory results: patent US5482858A, “Polypeptide linkers for production of biosynthetic proteins” (priority 1993, dated 1996)

Assays:
[1] = test system: 26-10 BABS (sFv), single chain biosynthetic antibody binding site VH-(Gly4-Ser)3-VL mimicking murine anti-digoxin monoclonal 26-10; test: Specificity determination by radioimmunoassay (inhibition of 125I-digoxin binding), 26-10 BABS
Experimental: After the plates were washed and blocked with 1% horse serum in PBSA, solutions (50 μl) containing 26-10 Fab or the BABS in either PBSA or 0.01M sodium acetate at pH 5.5 were added to the wells and incubated 2-3 hrs at room temperature.

[2] = target: 26-10 BABS, single chain biosynthetic antibody binding site VH-(Gly4-Ser)3-VL mimicking murine anti-digoxin monoclonal 26-10; test: Affinity determination by equilibrium binding of 3H-digoxin (immunoprecipitation), 26-10 BABS
Experimental: (§1) Association constants were measured by equilibrium binding studies. […] After 2-3 hrs of incubation at room temperature, the protein was precipitated by the addition of 100 μl goat antiserum to murine Fab fragment (ICN Immuno-Biologicals), 50 μl of the IgG fraction of rabbit anti-goat IgG (ICN ImmunoBiologicals), and 50 μl of a 10% suspension of protein A-Sepharose (Sigma). Following 2 hrs at 4° C., bound and free antigen were separated by vacuum filtration on glass fiber filters (Vacuum Filtration Manifold, Millipore, Bedford, Mass.). Filter disks were then counted in 5 ml of […] scintillation fluid with a Model 1500 Tri-Carb Liquid Scintillation Analyzer (Packard, Sterling, Va.). The Scatchard analyses of the untransformed radioligand binding data using LIGAND, a non-linear curve fitting program based on mass action. Ko s were also calculated by Sips plots and binding isotherms shown in FIG. 13A for the BABS and 13B for the Fab. […] These binding data are also plotted in linear form as Sips plots (inset), having the same abscissa as the binding isotherm but with the ordinate representing log r/(n-r), defined below.

[3] = target: anti-digoxin 26-10 Fab (murine monoclonal 26-10); test: Affinity determination by equilibrium binding of 3H-digoxin (immunoprecipitation), 26-10 Fab
Experimental: as §1

[4] = target: IgG2a,k monoclonal antibody 26-10 (parent anti-digoxin antibody); details: cited from earlier work
[5] = normalizing glycoside Digoxigenin

Row | Structure (SMILES) | normalized concentration of inhibitor giving 50% inhibition of 125I-digoxin binding [1, 5] | normalized concentration of inhibitor giving 50% inhibition of 125I-digoxin binding ([1]; normalizing glycoside Digoxin) | other results
1 | CC(=O)OC1CCC2(C=O)C3CCC4(C)C(C5=CC(=O)OC5)CCC4(O)C3CCC2(O)C1 (stereo not shown) [Acetyl Strophanthidin] | 0.8 | 5.9 | 
2 | C[C@H]1O[C@@H](O[C@H]2[C@@H](O)C[C@H](O[C@H]3[C@@H](O)C[C@H](O[C@H]4CC[C@@]5(C)[C@H](CC[C@@H]6[C@@H]5CC[C@]5(C)[C@@H](C7=CC(=O)OC7)CC[C@]65O)C4)O[C@@H]3C)O[C@@H]2C)C[C@H](O)[C@@H]1O [Digitoxin] | 0.3 | 2.0 | 
3 | C[C@]12CC[C@H](O)C[C@H]1CC[C@@H]1[C@@H]2C[C@@H](O)[C@]2(C)[C@@H](C3=CC(=O)OC3)CC[C@]12O [Digoxigenin] | 1.0 | 7.3 | 
4 | C[C@H]1O[C@@H](O[C@H]2[C@@H](O)C[C@H](O[C@H]3[C@@H](O)C[C@H](O[C@H]4CC[C@@]5(C)[C@H](CC[C@@H]6[C@@H]5CC[C@]5(C)[C@@H](C7=CC(=O)OC7)[C@@H](O)C[C@]65O)C4)O[C@@H]3C)O[C@@H]2C)C[C@H](O)[C@@H]1O [Gitoxin] | 8.5 | 62 | 
5 | C[C@H]1O[C@@H](O[C@H]2[C@@H](O)C[C@H](O[C@H]3[C@@H](O)C[C@H](O[C@H]4CC[C@@]5(C)[C@H](CC[C@@H]6[C@@H]5C[C@@H](O)[C@]5(C)[C@@H](C7=CC(=O)OC7)CC[C@]65O)C4)O[C@@H]3C)O[C@@H]2C)C[C@H](O)[C@@H]1O [Digoxin] |  |  | Association Constant, Ko (BABS) ([2]; Binding isotherm): 5.2e+07 M⁻¹; Association Constant, Ko (BABS) ([2]; Scatchard plot): (3.2 ± 0.9) × 10^7 M^-1; Association Constant, Ko (BABS) ([2]; Sips plot): 2.6e+07 M⁻¹; Association Constant, Ko (Fab) ([3]; Binding isotherm): 3.3e+08 M⁻¹; Association Constant, Ko (Fab) ([3]; Scatchard plot): (1.9 ± 0.2) × 10^8 M^-1; Association Constant, Ko (Fab) ([3]; Sips plot): 1.8e+08 M⁻¹; Kd [4]: 0.185 nM
6 | C[C@]12CC[C@H](O)C[C@H]1CC[C@@H]1[C@@H]2CC[C@]2(C)[C@@H](C3=CC(=O)OC3)CC[C@]12O [Digitoxigenin] | 0.4 | 2.6 | 
7 | C[C@@H]1O[C@@H](O[C@H]2C[C@@H](O)[C@]3(CO)[C@H]4[C@H](O)C[C@]5(C)[C@@H](C6=CC(=O)OC6)CC[C@]5(O)[C@@H]4CC[C@]3(O)C2)[C@H](O)[C@H](O)[C@H]1O [Ouabain] | 21 | 150 | 
